Blank lines part the entries; values can stand above or below the molecule they belong to. Residues, ends and D or L forms follow the SMILES beside them. No end group written: not given here.
Tests used:
[1] = test system: HAEC; assay: Inhibition of TKPPR-bubble binding to HAEC in static culture by competing agents; type: cell-based, human; settings: for ability to block binding of BRU-114 microbubbles to HAEC: up to 200 microM; for half-maximal inhibition of bubble binding / IC50 / Bubbles Bound: 5% TKPPR bubbles; for IC50: read-out: half-maximal inhibition of bubble binding; for inhibition of bubble binding to HAEC: Example 12
Description: Vials of the compositions of example 5 and of example 6 may be reconstituted with 5 mL of sterile saline, injected using a 20-guage 1.5 inch needle. Bubbles may be then formed within the vials by shaking by hand vigorously for 30 seconds. 1 to 5 mL of the bubble formulation may be removed from each vial and diluted with 3 volumes of D-PBS (without calcium or magnesium) within 1 hour of use.
Chamber slides containing confluent HAEC may be drained of culture medium, which was immediately replaced with one of the final bubble solutions prepared above. The wells may be slightly overfilled such that the liquid meniscus protrudes slightly above the plastic well-forming scaffold of the slide. Bubble solutions may be only added to alternate wells to minimize liquid cross-talk. The wells may be sealed with a piece of Parafilm and the slide incubated 20 minutes, inverted (according to Klibanov A. L., Advanced drug Delivery Reviews, 37, 1999, 139-157) to allow the bubbles to rise and make contact with the cells, after which the solutions may be poured off. Weakly associated bubbles may be removed by washing each well twice with 0.5 mL of D-PBS, swirling gently each time before pouring off. Additional D-PBS (0.5 mL) may be added to wells after the washes to keep the cells submerged until microscopic evaluation.
Composition I of Example 5 was repeated exactly as described except that 0.5 mg DPPE-GTKPPR was added (instead of 2.5 mg) yielding compositions with 1% DPPE-GTKPPR. Vials of this composition as well as that of composition I ofExample 5 (5% DPPE-GTKPPR) were reconstituted with 5 mL of sterile saline, injected using a 20-guage 1.5 inch needle. Bubbles were then formed within the vials by shaking by hand vigorously for 30 seconds. 1 to 5 mL of the bubble formulation was removed from each vial and diluted with 3 volumes of D-PBS (without calcium or magnesium) within 1 hour of use.
Chamber slides containing confluent HAEC were drained of culture medium, which was immediately replaced with one of the final bubble solutions prepared above. The wells were slightly overfilled such that the liquid meniscus protruded slightly above the plastic well-forming scaffold of the slide. Bubble solutions were only added to alternate wells to minimize liquid cross-talk. The wells were sealed with a piece of Parafilm and the slide was incubated 20 minutes, inverted to allow the bubbles to rise and make contact with the cells, after which the solutions were poured off. Weakly associated bubbles were removed by washing each well twice with 0.5 mL of D-PBS, swirling gently each time pouring off. Additional D-PBS (0.5 mL) was added to wells after the washes to keep the cells submerged until microscopic evaluation.
Assays were performed as described for Example 7 using microbubble compositions containing 2% BRU-114 (Composition I of Example 5) as a % of total phospholipid in the composition.
Compositions were reconstituted and assays were performed as described in Example 7 using microbubble compositions containing 1% BRU-114 (Composition I of Example 5) as a % of total phospholipid in the composition.
Assays were performed as described for Example 7 using microbubble compositions containing 2% BRU-114 (as a % of total phospholipid in the composition).

[2] = test system: NP-1/Fc; assay: Inhibition of 125I-VEGF165 binding to NP-1/Fc
Description: The ability of various compositions comprising TKPPR monomers or multimers to inhibit ^125I-VEGF binding to NP-1 was evaluated using NP-1/Fc. Competitive binding assays with microtiter plates coated with NP-1/Fc (R&D sytems) were performed using ^125I-VEGF165 as radioligand (Amersham Pharmacia Biotech Cat. No. IM274, Specific Activity: 1000-2500 Ci/mmol). […] Plates (Nunc MaxiSorp white opaque Microtiter plate [C-bottom, 437796]) were coated by incubating the wells with 75 µl of a solution containing 3 μlg/mL NP-1/Fc in D-PBS/0.1% NaAzide overnight at 4° C. after covering with sealing tape (Dynex, VWR Cat. No. 62402-931). […] All points were derived from triplicate wells, and for each set of replicates in NP-1/Fc-coated wells, a companion set in the absence of the receptor was included. For competitive binding, a series of unlabelled competitor concentrations were prepared in a 250 pM solution of ^1251-VEGF165 in assay buffer Solutions were added to 1.2 ml polypropylene tubes conforming to the microtiter format (Costar Cat. No. 29442-602), and transferred from these tubes to microtiter wells, without further dilution, using a multichannel pipettor. After addition of the appropriate solutions, microtiter plates were incubated at 4° C. for 2 hours. […] The plates were blotted dry and 25 μl deionized water and 100 μl scintillation fluid (Optiphase SuperMix, Wallac) were added to each well. Plates were agitated using a Plate Shaker (Hyperion, Cat. No. 4030-100F) for 3-5 minutes and were then counted using a Microplate Scintillation Counter (Wallac Microbeta Trilux) A set of serially diluted 125I-VEGF165 standard wells ranging from 200 to 0.04 pM were included with each experiment to aid in quantification of the amount of radiolabel bound.

[3] = test system: Neuropilin-1/Fc; assay: Fluorescence polarization binding to NP-1/Fc; settings: for binding to NP-1/Fc by FP: Oregon Green-labeled ligand
Description: The ability of various compositions comprising TKPPR monomers or multimers to bind to NP-1/Fc and KDR-Fc was evaluated using FP. The binding studies of various Oregon Green (OG)-labeled compounds comprising TKPPR monomers or multimers and related compounds with Neuropilin-1/Fc, and KDR-Fc (both from R&D Systems), were carried out at 37° C. in D-PBS buffer (pH 7.4). FP values (mP) for each substrate was measured by titrating the ligand (5-20 nM) with receptor protein using a Jolley Research and Consulting FPM-1 fluorescence Polarization analyzer. In each of these experiments the observed polarization values were plotted against receptor concentration. The mP values for 100% binding of tracer labeled ligand to receptor protein was calculated using the software provided by the vendor.

[4] = competitor 50 microM, 2% BRU-114 bubbles
[5] = competitor 100 microM, 2% BRU-114 bubbles
[6] = competitor 200 microM, 2% BRU-114 bubbles
[7] = competitor 100 ng/ml, 2% BRU-114 bubbles
[8] = competitor 200 ng/ml, 2% BRU-114 bubbles

ability to block binding of BRU-114 microbubbles to HAEC ([1]; 2% BRU-114 bubbles): no ability to block | Bubbles Bound % of control binding [1, 4]: 97% | Bubbles Bound % of control binding [1, 5]: 71% | Bubbles Bound % of control binding [1, 6]: 99%
Molecule: CC(O)C1/N=C(/O)C(N)CSSCC(C(=O)O)/N=C(/O)C(CCCNC(=N)N)/N=C(\O)C2CCCN2C(=O)C2CCCN2C(=O)C(CCCCN)/N=C\1O (stereo not drawn) [BRU-306]

Molecule: CC(O)C(NC(=O)C(N)CS)C(=O)NC(CCCCN)C(=O)N1CCCC1C(=O)N1CCCC1C(=O)NC(CCCNC(=N)N)C(=O)NC(CS)C(=O)O (stereo not drawn) [BRU-305] (H-CTKPPRC-OH; configuration not given here)
ability to block binding of BRU-114 microbubbles to HAEC ([1]; 2% BRU-114 bubbles): no ability to block | Bubbles Bound % of control binding [1, 4]: 97% | Bubbles Bound % of control binding [1, 5]: 78% | Bubbles Bound % of control binding [1, 6]: 88%

fold more potent than the monomer [2]: 10 to 14 fold | binding to NP-1/Fc by FP [3]: barely detectable
Molecule: BRU-317: TKPPR dimer labeled with Oregon Green (also: dimer, labeled with Oregon Green)

Molecule: TKPPR-K(RPPKT)-K[K(RPPKT)TKPPR]-G-Z-OG [BRU-346]
binding characteristics compared to BRU-326 [3]: did not exhibit the same binding characteristics | binding to NP-1/Fc by FP [3]: negative

potency at inhibiting BRU-114 microbubble binding relative to TKPPR (BRU-95) ([1]; 1% BRU-114 bubbles): less potent than TKPPR | inhibition of TKPPR-bubble binding to HAEC ([1]; Example 7, compared with free TKPPR): less effectively than free TKPPR | Bubbles Bound (average of duplicate) ([1]; competitor 5 microM, 1% BRU-114 bubbles): 1152 | Bubbles Bound (average of duplicate) ([1]; competitor 10 microM, 1% BRU-114 bubbles): 976 | Bubbles Bound (average of duplicate) ([1]; competitor 25 microM, 1% BRU-114 bubbles): 1171 | Bubbles Bound (average of duplicate) ([1]; competitor 50 microM, 1% BRU-114 bubbles): 904 | Bubbles Bound (average of duplicate) ([1]; competitor 100 microM, 1% BRU-114 bubbles): 556 | fold less potent a binding inhibitor than TKPPR [2]: 5 to 6 fold | IC50 ([2]; 250 pM 125I-VEGF165, 4° C., 2 hours): 280000 nM
Molecule: C[C@@H](O)[C@H](N)C(=O)N[C@@H](CCCCN)C(=O)N1CCC[C@H]1C(=O)N[C@@H](CCCNC(=N)N)C(=O)O [TKPR, L-threonyl-L-lysyl-L-prolyl-L-Arginine, reference compound] (H-TKPR-OH)

ability to inhibit binding of BRU-114 microbubbles to HAEC ([1]; 2% BRU-114 bubbles): potently blocked | half-maximal inhibition of bubble binding [1]: about 12.5 ng/mL | IC50 [1]: ~0.3 nM | inhibition of bubble binding to HAEC [1]: potently may inhibit | Bubbles Bound ([1]; VEGF added 6.25 ng/ml): 1184 ± 172 | Bubbles Bound ([1]; VEGF added 12.5 ng/ml): 599 ± 6 | Bubbles Bound ([1]; VEGF added 25 ng/ml): 342 ± 22 | Bubbles Bound ([1]; VEGF added 50 ng/ml): 226 ± 39 | Bubbles Bound ([1]; VEGF added 75 ng/ml): 190 ± 45 | Bubbles Bound (average of duplicate) ([1]; competitor 25 ng/ml, 2% BRU-114 bubbles): 144 | Bubbles Bound (average of duplicate) [1, 7]: 94 | Bubbles Bound (average of duplicate) [1, 8]: 70
Molecule: VEGF165: vascular endothelial growth factor isoform containing 165 amino acids

Molecule: Thr-Lys-Pro-Pro-Arg-Lys(Arg-Pro-Pro-Lys-Thr)-Gly-TTDA-OG [BRU-337]
binding characteristics compared to BRU-326 [3]: did not exhibit the same binding characteristics

half-maximal inhibition of bubble binding [1]: about 450 ng/mL | IC50 [1]: ~1.4 nM | inhibition of bubble binding to HAEC [1]: inhibit potently | Bubbles Bound ([1]; KDR/Fc added 125 ng/ml): 1030 ± 12 | Bubbles Bound ([1]; KDR/Fc added 250 ng/ml): 786 ± 76 | Bubbles Bound ([1]; KDR/Fc added 500 ng/ml): 342 ± 78 | Bubbles Bound ([1]; KDR/Fc added 1000 ng/ml): 75 ± 5 | Bubbles Bound ([1]; KDR/Fc added 2500 ng/ml): 84 ± 3
Molecule: KDR/Fc: soluble human KDR/Fc chimera (R&D Sytems Inc.)

inhibition of 125I-VEGF165 binding to NP-1 Fc ([2]; at 1 μM): no inhibition
Molecule: BRU-170: TPATSVRG (negative control) [reference compound]

ability to inhibit binding of BRU-114 microbubbles to HAEC ([1]; 2% BRU-114 bubbles): little if any ability to inhibit | Bubbles Bound (average of duplicate) [1, 7]: 878 | Bubbles Bound (average of duplicate) [1, 8]: 849 | Bubbles Bound (average of duplicate) ([1]; competitor 400 ng/ml, 2% BRU-114 bubbles): 778 | effect on BRU-326 binding to NP-1 ([3]; at up to 250nM): no effect
B1: VEGF121: VEGF isoform of 121 amino acids, lacks the heparin-binding domain (protein)
chain: APMAEGGGQNHHEVVKFMDVYQRSYCHPIETLVDIFQEYPDEIEYIFKPSCVPLMRCGGCCNDEGLECVPTEESNITMQIMRIKPHQGQHIGEMSFLQHNKCECRPKKDRARQEKCDKPRR

From patent publication US20020147136A1, “Compounds for targeting endothelial cells, compositions containing the same and methods for their use” (priority 2000, published 2002)
